# Data taken from patent US10517842B2, “Methods of modulating miRNA levels and compositions for use in the same” (Los Angeles Biomedical Research Institute at Harbor-UCLA …, priority 2017, dated 2019).
# Assays:
# Format in all cases: cell-based, human
# [1] = test system: miR-29c; assay: Quantitative RT-PCR (TaqMan miRNA assay), cellular and secreted miRNA in LSMC; conditions: for miR-29c level: 48 hours, LSMC; for expression of miR-29c: primary leiomyoma cells
# Experimental: (§1) Total RNA was extracted from LSMC using RNAzol (GeneCopoeia, Rockville, Md.) and their quantity and quality was determined (ND-1000 Spectrophotometer, NanoDrop Technologies, Wilmington, Del.) as previously described (Chuang & Khorram, “miR-200c Regulates IL8 Expression by Targeting IKBKB: A Potential Mediator of Inflammation in Leiomyoma Pathogenesis,” PloS one (2014) 9:e95370). For medium miRNA extraction, 5 pg of synthetic miR-1 from Caenorhabditis elegans (cel-miR-1) was added as a spike-in control for purification efficiency. Subsequently, 2 μg or 10 ng (for miRNA) was reverse transcribed using random primers for CCND1, CDK2, COL1A1, COL3A1, TGF-β3, DNMT1 and EZH2 or specific primers for miR-29c and miR-200c according to the manufacturer's guidelines (Applied Biosystems, Carlsbad, Calif.). Quantitative RT-PCR was carried out using SYBR gene expression master mix or TaqMan miRNA expression assays (Applied Biosystems). Reactions were incubated for 10 min at 95° C. followed by 40 cycles for 15 seconds at 95° C. and 1 min at 60° C. The level of mRNAs and expression of cellular and secreted miRNA was determined using the Invitrogen StepOne System with 18S, RNU6B and cel-miR-1 used for normalization respectively. All reactions were run in triplicate and relative expression was analyzed with the comparative cycle threshold method (2^−ΔΔCT) according to the manufacturer (Applied Biosystems). Values were expressed as fold change compared to the control group.
# [2] = test system: 3′UTR of COL3A1; assay: 3′UTR luciferase reporter assay in LSMC; conditions: primary leiomyoma cells
# Experimental: LSMC were seeded at 3.5×10^4 cells/well in 6-well plates and at sub-confluence were treated with Tranilast (200 μM) or DMSO as control for 48 hrs. Tranilast and DMSO-treated cells were then transfected with luciferase reporter plasmids (1 μg/well) containing 3′ UTR sequences for COL3A1 or CDK2 (GeneCopoeia, Inc., Rockville, Md.) using PureFection transfection reagent (System Biosciences, Inc., Palo Alto, Calif.). After 48 hrs of transfection Firefly and Renilla luciferase activities were measured using the Dual-Luciferase Reporter Assay System (Promega). Firefly luciferase activity was normalized to Renilla luciferase activity. The level of induction was reported as mean±SEM of three experiments and compared with a ratio in cells treated with DMSO independently set as 1.
# FIG. 10A: The relative luciferase activity in LSMC treated with Tranilast (200 μM) or DMSO as control for 48 hrs prior to transfection with Renilla and Firefly luciferase reporter plasmids carrying a 3′UTR fragment of COL3A1, CDK2 or IL8 and incubated with Tranilast (200 μM) or DMSO containing medium after transfection for another 48 hrs. The relative luciferase activity is presented as the ratio of Firefly:Renilla as compared to DMSO which was independently set as 1. The results are presented as mean±SEM of at least three sets of independent experiments using LSMC isolated from 3 patients. FIG. 10B: Protein expression of COL3A1 and CDK2 was determined after transfection of anti-miR scrambled oligonucleotides (aNC) or anti-miR-29c oligonucleotides (a29c) in LSMC for 72 hrs with DMSO or Tranilast (200 μM) treatment for the last 48 hrs. GAPDH was used as loading control. The result is one representative of at least three sets of independent experiments using LSMC isolated from 3 patients. FIG. 10C: The bar graph presented the relative band densities as mean±SEM of at least three independent experiments. Inhibition of protein expression by Tranilast treatment was calculated relative to changes in corresponding DMSO controls in cells transfected with aNC or anti-miR-29c.
# [3] = test system: 3′UTR of CDK2; assay: 3′UTR luciferase reporter assay in LSMC; conditions: primary leiomyoma cells
# [4] = test system: miR-200c; assay: Quantitative RT-PCR (TaqMan miRNA assay), cellular and secreted miRNA in LSMC; conditions: primary leiomyoma cells
# Experimental: as §1
molecule,measurement,setting,value
CC(=O)Oc1ccccc1C(=O)O [Aspirin],miR-29c level,[1]; Aspirin 10 mM,not affected
O=C(CC1NCCCC1O)Cn1cnc2cc(Br)c(Cl)cc2c1=O (centres unmarked) [Halofuginone],activity of luciferase reporter containing 3′UTR of COL3A1,[2]; Halofuginone 200 nM,inhibit
same,activity of luciferase reporter containing 3′UTR of CDK2,[3]; Halofuginone 200 nM,inhibit
same,expression of miR-200c,[4]; Halofuginone 200 nM,induce
same,expression of miR-29c,[1]; Halofuginone 200 nM,induce
Cc1ccc(=O)n(-c2ccccc2)c1 [Pirfenidone],activity of luciferase reporter containing 3′UTR of COL3A1,[2]; Pirfenidone 0.25 mg/ml,inhibit
same,activity of luciferase reporter containing 3′UTR of CDK2,[3]; Pirfenidone 0.25 mg/ml,inhibit
same,expression of miR-200c,[4]; Pirfenidone 0.25 mg/ml,induce
same,expression of miR-29c,[1]; Pirfenidone 0.25 mg/ml,induce
CCCCc1oc2ccccc2c1C(=O)c1cc(I)c(OCCN(CC)CC)c(I)c1 [amiodarone],miR-29c level,[1]; amiodarone 1 μM,not affected
bleomycin,miR-29c level,[1]; bleomycin 10 μg/ml,not affected
